Experimental data from PMC7095208 (Nature, 2014).

Columns and labels:
RAVV = conditions: mouse, in vivo
EBOV = conditions: mouse, in vivo

**Q.** For `Nc1ncnc2c([C@@H]3N[C@H](CO)[C@@H](O)[C@H]3O)c[nH]c12` [BCX4430, (2S,3S,4R,5R)-2-(4-amino-5H-pyrrolo[3,2-d]pyrimidin-7-yl)-5-(hydroxymethyl)pyrrolidine-3,4-diol], which protection (RAVV) is on record?
**A.** 75–100%

**Q.** And the “protection (survival vs vehicle)” value (RAVV)?
**A.** significant protection

**Q.** What about the “protection against lethal EBOV challenge” value (EBOV) of the same molecule?
**A.** protected
